Data as given in US10105357B2, “Indication of antibiotic drugs for preparation of cancer inhibition pharmaceutical composition” (LAUNX BIOMEDICAL CO., LTD., priority 2014, dated 2018).
Counter-ions that a name gives are not always drawn. Like-named read-outs stand apart in the source and are kept apart here.

Key:
Type in all cases: cell-based, human
cancer cell lines = experiment: Cell viability analysis (WST-1) on cancer cell lines; settings: drug 10 μM, 72 hours, WST-1; Table 3
[1] = test system: HI650 (Lung Adenocarcinoma); experiment: Cell viability analysis, lung cancer HI650; settings: for viability at 10 µM: Homo sapiens, NCI-H1650, 72 h
[2] = test system: A549 (Lung Adenocarcinoma); experiment: Cell viability analysis, lung cancer A549; settings: for viability at 10 µM: Homo sapiens, A549, 72 h
[3] = test system: AGS (Gastric Adenocarcinoma); experiment: Cell viability analysis, gastric cancer AGS; settings: for viability at 10 µM: Homo sapiens, 72 h
[4] = test system: MKN-45 (Gastric Adenocarcinoma); experiment: Cell viability analysis, gastric cancer MKN-45; settings: for viability at 10 µM: Homo sapiens, MKN-45, 72 h, read-out: cell viability (survival rate), MKN-45, drug 10 μM, 72 hours, WST-1, OD450 nm
[5] = test system: HepG2 (Hepatocellular Carcinoma); experiment: Cell viability analysis, hepatic cancer HepG2; settings: for viability at 10 µM: Homo sapiens, HepG2, 72 h
[6] = test system: LoVo (Colorectal Adenocarcinoma); experiment: Cell viability analysis, colon cancer LoVo; settings: for viability at 10 µM: Homo sapiens, LoVo, 72 h, read-out: cell viability (survival rate), LoVo, drug 10 μM, 72 hours, WST-1, OD450 nm
[7] = test system: A375 (Amelanotic Melanoma); experiment: Cell viability analysis, skin cancer A375; settings: for viability at 10 µM: Homo sapiens, A-375, 72 h
[8] = test system: HeLa (Cervix Adenocarcinoma); experiment: Cell viability analysis, cervical cancer HeLa; settings: for viability at 10 µM: Homo sapiens, HeLa, 72 h
[9] = test system: PC3 (p53−) (Prostate Adenocarcinoma); experiment: Cell viability analysis, prostate cancer PC3; settings: for viability at 10 µM: Homo sapiens, 72 h
[10] = test system: TSGH-8301 (Urinary Bladder Carcinoma); experiment: Cell viability analysis, bladder cancer TSGH-8301; settings: Homo sapiens, 72 h
[11] = test system: MCF7 (Mammary Gland, Adenocarcinoma); experiment: Cell viability analysis, breast cancer MCF7; settings: for viability at 10 µM: Homo sapiens, MCF7, 72 h
[12] = test system: HL-60 (Acute Promyelocytic Leukemia); experiment: Cell viability analysis, leukemia HL-60; settings: for viability at 10 µM: Homo sapiens, HL-60, 72 h
[13] = read-out: cell viability (survival rate), H1650, drug 10 μM, 72 hours, WST-1, OD450 nm
[14] = read-out: cell viability (survival rate), A549, drug 10 μM, 72 hours, WST-1, OD450 nm
[15] = read-out: cell viability (survival rate), AGS, drug 10 μM, 72 hours, WST-1, OD450 nm
[16] = read-out: cell viability (survival rate), HepG2, drug 10 μM, 72 hours, WST-1, OD450 nm
[17] = read-out: cell viability (survival rate), A375, drug 10 μM, 72 hours, WST-1, OD450 nm
[18] = read-out: cell viability (survival rate), HeLa, drug 10 μM, 72 hours, WST-1, OD450 nm
[19] = read-out: cell viability (survival rate), PC3, drug 10 μM, 72 hours, WST-1, OD450 nm
[20] = read-out: cell viability (survival rate), TSGH, drug 10 μM, 72 hours, WST-1, OD450 nm
[21] = read-out: cell viability (survival rate), MCF7, drug 10 μM, 72 hours, WST-1, OD450 nm
[22] = read-out: cell viability (survival rate), HL-60, drug 10 μM, 72 hours, WST-1, OD450 nm
[23] = drug 10 μM, 72 hours, WST-1, OD450 nm

COc1ccc2c(c1)c(CC(=O)OCC(=O)O)c(C)n2C(=O)c1ccc(Cl)cc1 [Acemetacin (Emflex), Acemetacin]
inhibition effect on different cancer cell lines (cancer cell lines): significant inhibition effect
viability at 10 µM [1, 13]: 78.2%
viability at 10 µM [2, 14]: 88.1%
viability at 10 µM [3, 15]: 69%
viability at 10 µM [4]: 103%
viability at 10 µM [5, 16]: 110%
viability at 10 µM [6]: 94.7%
viability at 10 µM [7, 17]: 68.4%
viability at 10 µM [8, 18]: 70.9%
viability at 10 µM [9, 19]: 90.5%
viability at 10 µM [10, 20]: 99.4%
viability at 10 µM [11, 21]: 87.3%
viability at 10 µM [12, 22]: 120%

Nc1nc2c(ncn2COCCO)c(=O)[nH]1 [Acyclovir (Aciclovir), Acyclovir]
inhibition effect on different cancer cell lines (cancer cell lines): significant inhibition effect
viability at 10 µM [2, 14]: 126%
viability at 10 µM [3, 15]: 77.1%
viability at 10 µM [4]: 55.9%
viability at 10 µM [5, 16]: 104%
viability at 10 µM [6]: 66.3%
viability at 10 µM [7, 17]: 112%
viability at 10 µM [8, 18]: 87.2%
viability at 10 µM [9, 19]: 102%
viability at 10 µM [10, 20]: 107%
viability at 10 µM [11, 21]: 75.8%
viability at 10 µM [12, 22]: 91.6%

CN1[C@@H]2CC[C@H]1C[C@@H](OC(c1ccccc1)c1ccccc1)C2 [Benztropine mesylate]
inhibition effect on different cancer cell lines (cancer cell lines): significant inhibition effect
viability at 10 µM [1, 13]: 91.7%
viability at 10 µM [2, 14]: 68.2%
viability at 10 µM [3, 15]: 83%
viability at 10 µM [4]: 89.4%
viability at 10 µM [5, 16]: 86%
viability at 10 µM [6]: 81.4%
viability at 10 µM [7, 17]: 67.5%
viability at 10 µM [8, 18]: 95.3%
viability at 10 µM [9, 19]: 75.3%
viability at 10 µM [11, 21]: 63.3%
viability at 10 µM [12, 22]: 81.1%

O=C(N[C@H](CO)[C@H](O)c1ccc([N+](=O)[O-])cc1)C(Cl)Cl [Chloramphenicol (Chloromycetin), Chloramphenicol]
inhibition effect on different cancer cell lines (cancer cell lines): significant inhibition effect
viability at 10 µM [1, 13]: 75.6%
viability at 10 µM [2, 14]: 96.3%
viability at 10 µM [3, 15]: 90.6%
viability at 10 µM [4]: 66.8%
viability at 10 µM [5, 16]: 93.6%
viability at 10 µM [7, 17]: 114%
viability at 10 µM [8, 18]: 85%
viability at 10 µM [9, 19]: 120%
viability at 10 µM [10, 20]: 83.5%
viability at 10 µM [11, 21]: 89.1%
viability at 10 µM [12, 22]: 105%

CC[C@H]1OC(=O)[C@H](C)[C@@H](O[C@H]2C[C@@](C)(OC)[C@@H](O)[C@H](C)O2)[C@H](C)[C@@H](O[C@@H]2O[C@H](C)C[C@H](N(C)C)[C@H]2O)[C@](C)(O)C[C@@H](C)C(=O)[C@H](C)[C@@H](O)[C@]1(C)O [Erythromycin (E-Mycin), Erythromycin]
inhibition effect on different cancer cell lines (cancer cell lines): significant inhibition effect
viability at 10 µM [1, 13]: 90.4%
viability at 10 µM [2, 14]: 63.8%
viability at 10 µM [3, 15]: 27.7%
viability at 10 µM [4]: 53.2%
viability at 10 µM [5, 16]: 93.5%
viability at 10 µM [6]: 85.5%
viability at 10 µM [8, 18]: 93%
viability at 10 µM [9, 19]: 86%
viability at 10 µM [10, 20]: 42.6%
viability at 10 µM [11, 21]: 45.2%
viability at 10 µM [12, 22]: 111%

CS(=O)(=O)c1ccc([C@@H](O)[C@@H](CF)NC(=O)C(Cl)Cl)cc1 [Florfenicol]
inhibition effect on different cancer cell lines (cancer cell lines): significant inhibition effect
viability at 10 µM [1, 13]: 87%
viability at 10 µM [2, 14]: 67.8%
viability at 10 µM [4]: 117%
viability at 10 µM [5, 16]: 161%
viability at 10 µM [6]: 92.9%
viability at 10 µM [7, 17]: 88.4%
viability at 10 µM [8, 18]: 95.1%
viability at 10 µM [9, 19]: 102%
viability at 10 µM [10, 20]: 86.9%
viability at 10 µM [11, 21]: 123%
viability at 10 µM [12, 22]: 109%

OC(Cn1cncn1)(Cn1cncn1)c1ccc(F)cc1F [Fluconazole]
inhibition effect on different cancer cell lines (cancer cell lines): significant inhibition effect
viability at 10 µM [1, 13]: 45.3%
viability at 10 µM [2, 14]: 125%
viability at 10 µM [3, 15]: 50.2%
viability at 10 µM [4]: 76.2%
viability at 10 µM [5, 16]: 97.4%
viability at 10 µM [6]: 102%
viability at 10 µM [7, 17]: 76.9%
viability at 10 µM [8, 18]: 79.2%
viability at 10 µM [9, 19]: 97.7%
viability at 10 µM [10, 20]: 66.1%
viability at 10 µM [12, 22]: 106%

O=c1[nH]c(=O)n([C@H]2C[C@H](O)[C@@H](CO)O2)cc1I [Idoxuridine]
inhibition effect on different cancer cell lines (cancer cell lines): significant inhibition effect
viability at 10 µM [1, 13]: 82.8%
viability at 10 µM [2, 14]: 58.5%
viability at 10 µM [3, 15]: 68.7%
viability at 10 µM [4]: 80.8%
viability at 10 µM [5, 16]: 122%
viability at 10 µM [6]: 72.7%
viability at 10 µM [7, 17]: 81.5%
viability at 10 µM [9, 19]: 57.8%
viability at 10 µM [10, 20]: 88%
viability at 10 µM [11, 21]: 47.3%
viability at 10 µM [12, 22]: 96.1%

CC(=O)O[C@]1(C(C)=O)CC[C@H]2[C@@H]3C=C(C)C4=CC(=O)CC[C@]4(C)[C@H]3CC[C@@]21C [Megestrol Acetate]
inhibition effect on different cancer cell lines (cancer cell lines): significant inhibition effect
viability at 10 µM [1, 13]: 56%
viability at 10 µM [3, 15]: 84.7%
viability at 10 µM [4]: 74.8%
viability at 10 µM [5, 16]: 88.9%
viability at 10 µM [6]: 109%
viability at 10 µM [7, 17]: 80.8%
viability at 10 µM [8, 18]: 78.6%
viability at 10 µM [9, 19]: 80.3%
viability at 10 µM [10, 20]: 74.3%
viability at 10 µM [11, 21]: 110%
viability at 10 µM [12, 22]: 94%

CCCN1CCCC[C@H]1C(=O)Nc1c(C)cccc1C [Ropivacaine HCl]
inhibition effect on different cancer cell lines (cancer cell lines): significant inhibition effect
viability at 10 µM [1, 13]: 92.4%
viability at 10 µM [2, 14]: 118%
viability at 10 µM [3, 15]: 64.3%
viability at 10 µM [4]: 132%
viability at 10 µM [5, 16]: 98%
viability at 10 µM [6]: 89.7%
viability at 10 µM [7, 17]: 71.2%
viability at 10 µM [8, 18]: 126%
viability at 10 µM [9, 19]: 110%
viability at 10 µM [11, 21]: 99.2%
viability at 10 µM [12, 22]: 81.3%

Cc1cc(-n2c(=O)[nH]c(=O)n(C)c2=O)ccc1Oc1ccc(SC(F)(F)F)cc1 [toltrazuril]
inhibition effect on different cancer cell lines (cancer cell lines): significant inhibition effect
viability at 10 µM ([1]; drug 10 μM, 72 hours, WST-1, OD450 nm, read-out: cell viability (survival rate), H1650): 70.9%
viability at 10 µM ([2]; drug 10 μM, 72 hours, WST-1, OD450 nm, read-out: cell viability (survival rate), A549): 61.2%
viability at 10 µM ([3]; drug 10 μM, 72 hours, WST-1, OD450 nm, read-out: cell viability (survival rate), AGS): 26.3%
viability at 10 µM ([5]; drug 10 μM, 72 hours, WST-1, OD450 nm, read-out: cell viability (survival rate), HepG2): 62.2%
viability at 10 µM [6]: 61.9%
viability at 10 µM ([7]; drug 10 μM, 72 hours, WST-1, OD450 nm, read-out: cell viability (survival rate), A375): 27.7%
viability at 10 µM ([8]; drug 10 μM, 72 hours, WST-1, OD450 nm, read-out: cell viability (survival rate), HeLa): 70.1%
viability at 10 µM ([9]; drug 10 μM, 72 hours, WST-1, OD450 nm, read-out: cell viability (survival rate), PC3): 30.3%
viability at 10 µM ([10]; drug 10 μM, 72 hours, WST-1, OD450 nm, read-out: cell viability (survival rate), TSGH): 34.8%
viability at 10 µM ([11]; drug 10 μM, 72 hours, WST-1, OD450 nm, read-out: cell viability (survival rate), MCF7): 67.4%
viability at 10 µM ([12]; drug 10 μM, 72 hours, WST-1, OD450 nm, read-out: cell viability (survival rate), HL-60): 73.1%

Tenofovir [Tenofovir (Viread)]
inhibition effect on different cancer cell lines (cancer cell lines): significant inhibition effect
cell viability (survival rate), H1650 [1, 23]: 55.6
cell viability (survival rate), A549 [2, 23]: 47.7
cell viability (survival rate), AGS [3, 23]: 67.0
cell viability (survival rate), MKN-45 [4, 23]: 70.9
cell viability (survival rate), HepG2 [5, 23]: 99.0
cell viability (survival rate), LoVo [6, 23]: 85.9
cell viability (survival rate), A375 [7, 23]: 60.6
cell viability (survival rate), HeLa [8, 23]: 95.0
cell viability (survival rate), PC3 [9, 23]: 68.1
cell viability (survival rate), MCF7 [11, 23]: 71.1
cell viability (survival rate), HL-60 [12, 23]: 97.6
